Experimental data reported in PubChem BioAssay AID2060882 (Molecular Pharmacology Branch, DTP, NCI, 2025).

Test system: 898857-211-R-J1-PDC complex spheroids, growth % test/control
Experiment: Anticancer human tumor 898857-211-R-J1-PDC patient-derived melanoma cell line growth inhibition [RAS]
Conditions: for IC50: curve of first compound; for viability, T/C: stronger effect = lower value
How it was run: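 Multi-cell-type spheroids: tumor cells plus HUVEC endothelial cells and mesenchymal stem cells. RAS-pathway inhibitors were combined with targeted agents, each dosed in half-log steps down from clinical Cmax, or from 10 microM when Cmax was unknown.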
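Note: spheroids exposed to compound for seven days before readout.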
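Throughout, for viability, T/C: 100% = DMSO vehicle control wells.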

CCc1c2c(nc3ccc(O)cc13)-c1cc3c(c(=O)n1C2)COC(=O)[C@]3(O)CC + CCn1c(-c2cccnc2C(C)OC)c2c3cc(ccc31)N1CCOC(CC(NC(=O)C(C(C)C)N(C)C(=O)C3(F)CCN(C(=O)C#CC(C)(C)N(C)C)CC3)C(=O)N3CCCC(N3)C(=O)OCC(C)(C)C2)C1
IC50 (second compound 0.000949 µM): 5.13 nM | IC50 (second compound 0.003 µM): 4.91 nM | IC50 (second compound 0.00949 µM): 4.21 nM | IC50 (second compound 0.03 µM): 3.8 nM | IC50 (second compound 0.0949 µM): 3.54 nM | IC50 (second compound 0.3 µM): 2.75 nM | viability, T/C (second compound 0.000949 µM, first compound 0.000949 µM): 103% | viability, T/C (second compound 0.000949 µM, first compound 0.003 µM): 66.7% | viability, T/C (second compound 0.000949 µM, first compound 0.00949 µM): 31.6% | viability, T/C (second compound 0.000949 µM, first compound 0.03 µM): 10.2% | viability, T/C (second compound 0.000949 µM, first compound 0.0949 µM): 7.77% | viability, T/C (second compound 0.000949 µM, first compound 0.3 µM): 6.78% | viability, T/C (second compound 0.003 µM, first compound 0.000949 µM): 92.2% | viability, T/C (second compound 0.003 µM, first compound 0.003 µM): 64.1% | viability, T/C (second compound 0.003 µM, first compound 0.00949 µM): 31.5% | viability, T/C (second compound 0.003 µM, first compound 0.03 µM): 11.2% | viability, T/C (second compound 0.003 µM, first compound 0.0949 µM): 6.86% | viability, T/C (second compound 0.003 µM, first compound 0.3 µM): 5.62% | viability, T/C (second compound 0.00949 µM, first compound 0.000949 µM): 91.5% | viability, T/C (second compound 0.00949 µM, first compound 0.003 µM): 58.2% | viability, T/C (second compound 0.00949 µM, first compound 0.00949 µM): 30.2% | viability, T/C (second compound 0.00949 µM, first compound 0.03 µM): 11.7% | viability, T/C (second compound 0.00949 µM, first compound 0.0949 µM): 6.64% | viability, T/C (second compound 0.00949 µM, first compound 0.3 µM): 7.62% | viability, T/C (second compound 0.03 µM, first compound 0.000949 µM): 88.5% | viability, T/C (second compound 0.03 µM, first compound 0.003 µM): 55.3% | viability, T/C (second compound 0.03 µM, first compound 0.00949 µM): 28.3% | viability, T/C (second compound 0.03 µM, first compound 0.03 µM): 9.56% | viability, T/C (second compound 0.03 µM, first compound 0.0949 µM): 7.6% | viability, T/C (second compound 0.03 µM, first compound 0.3 µM): 5.55% | viability, T/C (second compound 0.0949 µM, first compound 0.000949 µM): 77.6% | viability, T/C (second compound 0.0949 µM, first compound 0.003 µM): 52.6% | viability, T/C (second compound 0.0949 µM, first compound 0.00949 µM): 29.5% | viability, T/C (second compound 0.0949 µM, first compound 0.03 µM): 8.59% | viability, T/C (second compound 0.0949 µM, first compound 0.0949 µM): 6.88% | viability, T/C (second compound 0.0949 µM, first compound 0.3 µM): 5.75% | viability, T/C (second compound 0.3 µM, first compound 0.000949 µM): 65.3% | viability, T/C (second compound 0.3 µM, first compound 0.003 µM): 48.6% | viability, T/C (second compound 0.3 µM, first compound 0.00949 µM): 20.1% | viability, T/C (second compound 0.3 µM, first compound 0.03 µM): 7.15% | viability, T/C (second compound 0.3 µM, first compound 0.0949 µM): 8.16% | viability, T/C (second compound 0.3 µM, first compound 0.3 µM): 5.2%
